# Measurements published in patent US12686689B2, “HPK1 inhibitor, preparation method therefor and use thereof” (WIGEN BIOMEDICINE TECHNOLOGY (SHANGHAI) CO., LTD., priority 2020, dated 2026).
# How the values were obtained:
# HPK1 = HPK1 (Homo sapiens, UniProt Q92918); test: Inhibitory effect against enzyme activity of HPK1 (lantha Screen, PKC substrate); format: biochemical; conditions: class symbols defined as IC50 ranges, read-out: Inhibition rate (%)
# Experimental: Example 130: Assay of Inhibitory Effect of Compound Against Enzyme Activity of HPK1
# The inhibitory effect of the compound against the enzyme activity of HPK1 was determined by using a lantha Screen method with PKC as a substrate. The process comprises the following specific steps: the HPK1 protein was incubated with the serially-diluted compound at 28° C. for 10 min followed by addition of fluoroescein-labeled PKC substrate and ATP to react for 90 min. After termination of the reaction, a Terbium-labeled antibody against phosphorylated PKC was added and incubated for 60 min. The energy transfer of Teribium and fluoroscein was monitored by detecting luminescence at 520 nm and 450 nm to quantify PKC as the level of phosphorylation of […]. Inhibition % and IC50 of the compound were calculated compared to the control group.
# hERG potassium channel = target: T1, hERG potassium channel (Homo sapiens, UniProt Q12809); test: Inhibitory effect against hERG channel activity (manual patch clamp, HEK293 cells stably expressing hERG); format: cell-based; conditions: HEK293 cell line stably expressing hERG
# T1 construct: expressed in transfected cells; host or cells: HEK293
# T1 sequence (Q12809 whole entry): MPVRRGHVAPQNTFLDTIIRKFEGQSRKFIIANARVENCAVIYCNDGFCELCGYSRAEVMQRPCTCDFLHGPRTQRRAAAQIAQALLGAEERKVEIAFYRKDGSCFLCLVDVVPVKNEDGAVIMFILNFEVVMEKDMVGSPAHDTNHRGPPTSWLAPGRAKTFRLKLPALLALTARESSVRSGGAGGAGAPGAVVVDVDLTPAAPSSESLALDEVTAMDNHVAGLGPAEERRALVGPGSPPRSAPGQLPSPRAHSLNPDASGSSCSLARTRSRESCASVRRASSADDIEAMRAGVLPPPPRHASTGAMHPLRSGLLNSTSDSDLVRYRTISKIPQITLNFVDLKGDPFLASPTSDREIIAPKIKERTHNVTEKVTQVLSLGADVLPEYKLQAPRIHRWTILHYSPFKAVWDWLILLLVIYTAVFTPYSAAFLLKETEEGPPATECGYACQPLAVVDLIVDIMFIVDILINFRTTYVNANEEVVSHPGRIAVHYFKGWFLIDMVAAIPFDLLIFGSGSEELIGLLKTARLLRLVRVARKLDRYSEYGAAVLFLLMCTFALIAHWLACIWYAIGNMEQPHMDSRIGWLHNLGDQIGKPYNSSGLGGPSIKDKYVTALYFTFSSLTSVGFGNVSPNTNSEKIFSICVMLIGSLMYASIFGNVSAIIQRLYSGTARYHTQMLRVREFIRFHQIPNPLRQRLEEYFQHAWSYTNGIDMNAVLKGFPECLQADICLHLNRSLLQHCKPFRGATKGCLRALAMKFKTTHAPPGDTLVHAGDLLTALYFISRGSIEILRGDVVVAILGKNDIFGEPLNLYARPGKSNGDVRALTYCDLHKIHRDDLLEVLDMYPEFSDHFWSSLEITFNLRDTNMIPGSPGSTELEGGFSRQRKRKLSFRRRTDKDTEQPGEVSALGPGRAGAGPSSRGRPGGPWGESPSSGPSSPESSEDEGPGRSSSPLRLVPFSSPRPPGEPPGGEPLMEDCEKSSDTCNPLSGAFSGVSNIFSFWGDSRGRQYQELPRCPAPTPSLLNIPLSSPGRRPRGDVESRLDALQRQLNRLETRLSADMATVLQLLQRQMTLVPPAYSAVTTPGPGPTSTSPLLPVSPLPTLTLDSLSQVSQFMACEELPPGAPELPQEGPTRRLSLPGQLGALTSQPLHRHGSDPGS
# Experimental: Example 131: Assay of Inhibitory Effect of Compound Against hERG Channel Activity
# The HEK293 cell line stably expressed by the hERG potassium channel was adopted for detection using manual patch clamp. Firstly, the HEK293 cell line stably expressed by the hERG potassium channel was separated and laid on a cover glass before the patch clamp detection test, and the test detection was carried out after culture for 18 h. Then a capillary glass tube was drawn into a recording electrode, and the recording electrode was contacted onto the cells under an inverted microscope to form a whole-cell recording mode. After necessary compensation and recording of the membrane capacitance and series resistance, current recording was performed according to the set current stimulation protocol. After the hERG current stabilized, administration was started and the current detected in compound-free extracellular fluid for each cell served as its own control group, and multiple cells were repeatedly tested independently. The current acted for each drug concentration and the current of the blank control were standardized, then the inhibition rate corresponding to each drug concentration was calculated, and finally the half-inhibition concentration IC50 value of each compound was calculated.
# HPK1, sequence (Q92918 whole entry): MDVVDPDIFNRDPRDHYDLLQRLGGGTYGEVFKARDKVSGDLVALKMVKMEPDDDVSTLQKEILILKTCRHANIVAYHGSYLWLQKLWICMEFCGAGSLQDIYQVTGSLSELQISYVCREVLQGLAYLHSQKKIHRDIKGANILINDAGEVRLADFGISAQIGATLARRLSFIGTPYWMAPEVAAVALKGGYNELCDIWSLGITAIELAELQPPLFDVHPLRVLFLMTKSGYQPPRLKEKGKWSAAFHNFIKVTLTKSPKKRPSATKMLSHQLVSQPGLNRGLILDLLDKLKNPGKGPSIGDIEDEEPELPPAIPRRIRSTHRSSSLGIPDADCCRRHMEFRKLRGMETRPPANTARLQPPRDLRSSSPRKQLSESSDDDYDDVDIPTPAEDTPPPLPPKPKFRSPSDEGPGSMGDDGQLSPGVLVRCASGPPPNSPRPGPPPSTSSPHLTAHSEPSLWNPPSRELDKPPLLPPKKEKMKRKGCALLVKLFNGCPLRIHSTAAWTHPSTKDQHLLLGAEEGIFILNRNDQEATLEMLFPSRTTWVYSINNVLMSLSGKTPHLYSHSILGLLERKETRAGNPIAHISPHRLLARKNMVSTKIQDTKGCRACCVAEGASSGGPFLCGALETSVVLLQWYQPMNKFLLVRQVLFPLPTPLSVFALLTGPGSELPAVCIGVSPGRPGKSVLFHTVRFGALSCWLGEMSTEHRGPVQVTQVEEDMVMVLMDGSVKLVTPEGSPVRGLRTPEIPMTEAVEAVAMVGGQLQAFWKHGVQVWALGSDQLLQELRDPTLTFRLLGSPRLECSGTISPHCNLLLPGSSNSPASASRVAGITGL
IC50 (HPK1),SMILES,IC50 (hERG potassium channel)
≤ 0.01 µM,Cc1ccncc1-c1cc2c(-c3ccc4c(c3)OCC3CN(C)CCN43)n[nH]c2cc1C#N (centres unmarked) [Compound 43],17.4 µM
0.01 to 0.1 µM,CN1CCN2c3ccc(-c4n[nH]c5cnc(-c6cccc(F)c6F)cc45)cc3OCC2C1 (centres unmarked) [Compound 67],51.2 µM
0.01 to 0.1 µM,COc1ccc(F)c(F)c1-c1cc2c(-c3ccc4c(c3)OCC3CN(C)CCN43)n[nH]c2cn1 (centres unmarked) [Compound 73],41.2 µM
≤ 0.01 µM,CN1CCN2c3ccc(-c4cnc5[nH]cc(-c6ccc(C(=O)N7CC(N(C)C)C7)cc6)c5n4)cc3OCC2C1 (centres unmarked) [Compound 112],35.6 µM
